Assay results as given in ChEMBL document CHEMBL1154392 (Bioorg Med Chem Lett, 2009).

Tests used:
[1] = system: A-375; experiment: Cytotoxicity against human A375 cells expressing B-RafV600E mutant; type: functional, cell-based
[2] = biological target: Serine/threonine-protein kinase B-raf (Homo sapiens, UniProt P15056); experiment: Inhibition of human recombinant B-Raf expressed in Sf9 cells assessed as inhibition of Mek1 phosphorylation
[3] = system: Caco-2; experiment: Cytotoxicity against human Caco-2 cells expressing wild type B-Raf; type: functional, cell-based
[4] = system: HT-29; experiment: Cytotoxicity against human HT-29 cells expressing B-RafV600E mutant; type: functional, cell-based
[5] = biological target: Tyrosine-protein kinase Lyn (Homo sapiens, UniProt P07948); experiment: Inhibition of LYN
[6] = biological target: Rho-associated protein kinase 1 (Homo sapiens, UniProt Q13464); experiment: Inhibition of ROCK1
Rho-associated protein kinase 1, sequence (Q13464 whole entry): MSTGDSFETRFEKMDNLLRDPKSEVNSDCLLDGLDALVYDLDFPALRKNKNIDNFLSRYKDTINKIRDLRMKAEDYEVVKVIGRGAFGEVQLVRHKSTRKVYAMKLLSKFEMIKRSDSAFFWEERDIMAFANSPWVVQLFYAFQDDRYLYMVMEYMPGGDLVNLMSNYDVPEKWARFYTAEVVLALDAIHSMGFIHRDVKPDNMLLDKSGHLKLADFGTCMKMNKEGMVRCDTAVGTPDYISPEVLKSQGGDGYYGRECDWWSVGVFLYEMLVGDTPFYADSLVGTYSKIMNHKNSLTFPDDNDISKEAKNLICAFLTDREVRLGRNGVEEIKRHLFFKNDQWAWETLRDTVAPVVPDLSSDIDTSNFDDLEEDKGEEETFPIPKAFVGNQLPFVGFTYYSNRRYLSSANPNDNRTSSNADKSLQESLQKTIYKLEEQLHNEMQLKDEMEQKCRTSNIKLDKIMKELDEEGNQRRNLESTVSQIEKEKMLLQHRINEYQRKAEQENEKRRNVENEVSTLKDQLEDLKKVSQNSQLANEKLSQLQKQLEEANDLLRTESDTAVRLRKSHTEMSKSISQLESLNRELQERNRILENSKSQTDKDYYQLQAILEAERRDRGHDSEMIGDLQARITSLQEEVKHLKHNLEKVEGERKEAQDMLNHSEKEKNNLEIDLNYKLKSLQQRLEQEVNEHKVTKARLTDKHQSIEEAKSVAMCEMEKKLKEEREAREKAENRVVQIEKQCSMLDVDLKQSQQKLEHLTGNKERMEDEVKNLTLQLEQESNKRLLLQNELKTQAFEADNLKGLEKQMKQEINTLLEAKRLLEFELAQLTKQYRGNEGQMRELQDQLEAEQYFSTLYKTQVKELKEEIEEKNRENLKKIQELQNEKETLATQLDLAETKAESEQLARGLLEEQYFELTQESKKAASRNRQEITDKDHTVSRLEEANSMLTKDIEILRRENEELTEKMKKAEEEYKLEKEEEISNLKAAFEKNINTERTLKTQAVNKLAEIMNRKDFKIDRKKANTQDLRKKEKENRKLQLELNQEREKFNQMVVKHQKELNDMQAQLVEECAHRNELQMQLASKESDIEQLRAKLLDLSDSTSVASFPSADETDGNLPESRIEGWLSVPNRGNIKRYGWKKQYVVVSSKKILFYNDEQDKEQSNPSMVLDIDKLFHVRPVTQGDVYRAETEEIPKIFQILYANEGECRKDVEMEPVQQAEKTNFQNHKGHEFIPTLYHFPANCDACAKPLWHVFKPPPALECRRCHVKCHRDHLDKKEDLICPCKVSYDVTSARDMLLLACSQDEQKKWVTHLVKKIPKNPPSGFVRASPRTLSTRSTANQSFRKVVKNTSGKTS

[7] = biological target: Serine/threonine-protein kinase Chk1 (Homo sapiens, UniProt O14757); experiment: Inhibition of CHK1
[8] = biological target: Tyrosine-protein kinase Fyn (Homo sapiens, UniProt P06241); experiment: Inhibition of FYN
[9] = biological target: Platelet-derived growth factor receptor alpha (Homo sapiens, UniProt P16234); experiment: Inhibition of PDGFRalpha
[10] = biological target: Aurora kinase B (Homo sapiens, UniProt Q96GD4); experiment: Inhibition of Aurora B
[11] = biological target: Protein kinase C alpha type (Homo sapiens, UniProt P17252); experiment: Inhibition of PKCalpha
[12] = biological target: Tyrosine-protein kinase HCK (Homo sapiens, UniProt P08631); experiment: Inhibition of HCK
[13] = biological target: Inhibitor of nuclear factor kappa-B kinase subunit alpha (Homo sapiens, UniProt O15111); experiment: Inhibition of IKKalpha
[14] = biological target: Mitogen-activated protein kinase kinase kinase kinase 2 (Homo sapiens, UniProt Q12851); experiment: Inhibition of GCK
[15] = biological target: MAP kinase-activated protein kinase 2 (Homo sapiens, UniProt P49137); experiment: Inhibition of MK2
[16] = biological target: Tyrosine-protein kinase ABL1 (Homo sapiens, UniProt P00519)
[17] = biological target: Proto-oncogene tyrosine-protein kinase Src (Homo sapiens, UniProt P12931); experiment: Inhibition of SRC
[18] = biological target: Inhibitor of nuclear factor kappa-B kinase subunit beta (Homo sapiens, UniProt O14920); experiment: Inhibition of IKK-beta
[19] = biological target: Mitogen-activated protein kinase 14 (Homo sapiens, UniProt Q16539); experiment: Inhibition of p38alpha
[20] = biological target: Mitogen-activated protein kinase 1 (Homo sapiens, UniProt P28482); experiment: Inhibition of ERK2
Mitogen-activated protein kinase 1, sequence (P28482 whole entry): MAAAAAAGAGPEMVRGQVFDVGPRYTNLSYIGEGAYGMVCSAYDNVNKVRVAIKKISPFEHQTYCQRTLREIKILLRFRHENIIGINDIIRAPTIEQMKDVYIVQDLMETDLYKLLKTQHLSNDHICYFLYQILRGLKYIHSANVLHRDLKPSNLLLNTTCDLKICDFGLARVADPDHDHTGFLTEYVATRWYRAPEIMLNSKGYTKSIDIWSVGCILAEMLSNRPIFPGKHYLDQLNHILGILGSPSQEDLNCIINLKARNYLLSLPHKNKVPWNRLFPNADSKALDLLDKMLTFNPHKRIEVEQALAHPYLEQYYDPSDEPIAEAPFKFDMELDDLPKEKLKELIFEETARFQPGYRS

[21] = biological target: Hepatocyte growth factor receptor (Homo sapiens, UniProt P08581); experiment: Inhibition of Met
Hepatocyte growth factor receptor, sequence (P08581 whole entry): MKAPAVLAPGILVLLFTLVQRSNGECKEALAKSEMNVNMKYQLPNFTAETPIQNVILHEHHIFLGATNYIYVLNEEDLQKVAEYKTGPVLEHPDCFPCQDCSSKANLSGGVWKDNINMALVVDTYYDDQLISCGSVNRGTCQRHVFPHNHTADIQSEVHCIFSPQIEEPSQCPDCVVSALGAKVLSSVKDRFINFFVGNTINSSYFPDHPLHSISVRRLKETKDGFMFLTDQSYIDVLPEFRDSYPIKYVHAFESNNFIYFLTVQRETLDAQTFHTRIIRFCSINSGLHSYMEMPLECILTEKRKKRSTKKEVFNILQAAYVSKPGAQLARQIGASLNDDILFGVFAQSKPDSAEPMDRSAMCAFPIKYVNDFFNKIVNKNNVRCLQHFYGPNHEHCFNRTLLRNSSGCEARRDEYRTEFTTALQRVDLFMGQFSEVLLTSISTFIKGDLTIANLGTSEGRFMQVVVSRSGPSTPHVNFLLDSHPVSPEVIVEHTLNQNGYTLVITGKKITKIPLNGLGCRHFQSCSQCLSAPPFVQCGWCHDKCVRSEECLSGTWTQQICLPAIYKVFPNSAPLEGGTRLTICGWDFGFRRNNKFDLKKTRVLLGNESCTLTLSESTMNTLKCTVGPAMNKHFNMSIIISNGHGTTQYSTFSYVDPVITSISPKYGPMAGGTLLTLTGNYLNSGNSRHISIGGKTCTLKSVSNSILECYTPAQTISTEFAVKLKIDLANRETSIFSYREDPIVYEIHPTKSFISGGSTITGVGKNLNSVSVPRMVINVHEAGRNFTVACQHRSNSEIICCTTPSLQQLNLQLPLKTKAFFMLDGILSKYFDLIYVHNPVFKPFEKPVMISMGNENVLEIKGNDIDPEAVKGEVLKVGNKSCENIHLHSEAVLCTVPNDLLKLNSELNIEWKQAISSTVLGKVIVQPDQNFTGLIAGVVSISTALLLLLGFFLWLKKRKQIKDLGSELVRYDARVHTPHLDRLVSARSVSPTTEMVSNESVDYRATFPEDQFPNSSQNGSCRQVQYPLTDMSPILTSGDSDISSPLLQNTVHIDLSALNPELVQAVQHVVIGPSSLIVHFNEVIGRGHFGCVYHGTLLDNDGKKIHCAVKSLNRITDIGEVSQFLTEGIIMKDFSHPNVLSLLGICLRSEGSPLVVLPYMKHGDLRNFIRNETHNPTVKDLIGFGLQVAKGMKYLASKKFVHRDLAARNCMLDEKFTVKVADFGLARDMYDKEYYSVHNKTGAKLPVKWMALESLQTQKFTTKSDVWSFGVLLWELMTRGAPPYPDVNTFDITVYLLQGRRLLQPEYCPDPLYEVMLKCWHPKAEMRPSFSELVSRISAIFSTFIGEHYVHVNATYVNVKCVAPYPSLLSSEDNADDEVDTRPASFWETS

[22] = biological target: Protein kinase C beta type (Homo sapiens, UniProt P05771); experiment: Inhibition of PKCbeta
[23] = biological target: Ribosomal protein S6 kinase alpha-1 (Homo sapiens, UniProt Q15418); experiment: Inhibition of RSk1
[24] = Inhibition of PKA
[25] = Inhibition of VEGFR2
[26] = biological target: Cyclin-dependent kinase 1 (Homo sapiens, UniProt P06493); experiment: Inhibition of CDK1
[27] = biological target: Casein kinase I isoform gamma-1 (Homo sapiens, UniProt Q9HCP0); experiment: Inhibition of CK1gamma1
Casein kinase I isoform gamma-1, sequence (Q9HCP0 whole entry, canonical isoform): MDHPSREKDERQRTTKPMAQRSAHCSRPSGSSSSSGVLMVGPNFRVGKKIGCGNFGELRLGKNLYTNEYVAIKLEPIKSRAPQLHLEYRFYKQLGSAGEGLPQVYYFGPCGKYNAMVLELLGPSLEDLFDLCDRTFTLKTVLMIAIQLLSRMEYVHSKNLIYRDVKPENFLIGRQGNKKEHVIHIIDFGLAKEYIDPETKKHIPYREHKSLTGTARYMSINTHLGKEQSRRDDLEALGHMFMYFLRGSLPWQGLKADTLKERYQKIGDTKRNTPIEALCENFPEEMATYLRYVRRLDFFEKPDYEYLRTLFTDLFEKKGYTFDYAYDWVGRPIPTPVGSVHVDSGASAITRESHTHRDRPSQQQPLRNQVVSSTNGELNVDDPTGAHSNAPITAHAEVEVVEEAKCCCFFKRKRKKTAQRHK

[28] = biological target: Cyclin-dependent kinase 2 (Homo sapiens, UniProt P24941); experiment: Inhibition of CDK2

Serine/threonine-protein kinase B-raf, sequence (P15056 whole entry): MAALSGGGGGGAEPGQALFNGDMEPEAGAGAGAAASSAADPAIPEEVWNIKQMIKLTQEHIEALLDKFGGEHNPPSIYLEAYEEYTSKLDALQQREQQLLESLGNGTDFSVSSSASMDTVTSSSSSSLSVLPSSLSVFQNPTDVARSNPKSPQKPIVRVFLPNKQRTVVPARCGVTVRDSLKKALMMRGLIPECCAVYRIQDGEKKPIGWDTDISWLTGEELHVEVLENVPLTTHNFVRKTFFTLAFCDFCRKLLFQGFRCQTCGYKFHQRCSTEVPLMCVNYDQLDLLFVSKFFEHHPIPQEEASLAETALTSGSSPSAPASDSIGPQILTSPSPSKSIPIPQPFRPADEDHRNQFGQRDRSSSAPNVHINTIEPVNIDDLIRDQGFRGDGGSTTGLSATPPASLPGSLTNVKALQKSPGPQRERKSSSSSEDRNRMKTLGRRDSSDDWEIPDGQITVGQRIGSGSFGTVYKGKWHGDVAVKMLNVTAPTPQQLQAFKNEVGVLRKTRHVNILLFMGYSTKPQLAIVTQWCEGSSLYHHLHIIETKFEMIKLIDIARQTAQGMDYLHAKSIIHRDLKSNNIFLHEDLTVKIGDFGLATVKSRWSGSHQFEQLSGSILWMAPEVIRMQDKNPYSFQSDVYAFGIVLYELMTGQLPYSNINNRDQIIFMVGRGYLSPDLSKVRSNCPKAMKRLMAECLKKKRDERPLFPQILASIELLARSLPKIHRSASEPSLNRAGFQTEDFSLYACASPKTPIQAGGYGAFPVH

CC(=O)N1C[C@@H]2C[C@H]1CN2c1ccc(-c2ccnc3c(-c4ccc(F)c(O)c4)c(-c4ccncc4)nn23)cc1
IC50 [1]: 210 nM

COc1cc(-c2c(-c3ccncc3)nn3c(-c4ccc(N5C[C@@H]6C[C@H]5CN6C)cc4C)ccnc23)ccc1F
IC50 [1]: 933 nM
IC50 [2]: 1 nM

COc1cc(-c2c(-c3ccncc3)nn3c(-c4ccc(N5C[C@@H]6C[C@H]5CN6)cc4)ccnc23)ccc1F
IC50 [1]: 1200 nM

CN1C2CCC1CN(c1ccc(-c3ccnc4c(-c5cccc(O)c5)c(-c5ccncc5)nn34)cc1)C2
IC50 [1]: 300 nM
IC50 [3]: 1300 nM
IC50 [4]: 270 nM
IC50 [2]: 0.9 nM

COc1cccc(-c2c(-c3ccncc3)nn3c(-c4ccc(N5C[C@@H]6C[C@H]5CN6C)cc4)ccnc23)c1
IC50 [1]: 760 nM

COc1cc(-c2c(-c3ccncc3)nn3c(-c4ccc(N5C[C@@H]6C[C@H]5CN6C)cc4)ccnc23)ccc1F
IC50 [1]: 6000 nM

CCN1C[C@@H]2C[C@H]1CN2c1ccc(-c2ccnc3c(-c4ccc(F)c(O)c4)c(-c4ccncc4)nn23)cc1
IC50 [1]: 200 nM
IC50 [2]: 0.51 nM

COc1cccc(-c2c(-c3ccncc3)nn3c(-c4ccc(N5C[C@@H]6C[C@H]5CN6)cc4)ccnc23)c1
IC50 [1]: 1100 nM
IC50 [2]: 12 nM

COc1cccc(-c2c(-c3ccncc3)nn3c(-c4ccc(N5C[C@@H]6C[C@H]5CN6)cc4F)ccnc23)c1
IC50 [1]: 504 nM
IC50 [2]: 0.44 nM

COc1cccc(-c2c(-c3ccncc3)nn3c(-c4ccc(N5CC6CCC(C5)N6C)cc4)ccnc23)c1
IC50 [1]: 1900 nM
IC50 [2]: 17 nM

CN1C2CCC1CN(c1ccc(-c3ccnc4c(-c5ccc(Cl)c(O)c5)c(-c5ccncc5)nn34)cc1)C2
IC50 [1]: 170 nM
IC50 [2]: < 0.32 nM

CN1C[C@@H]2C[C@H]1CN2c1ccc(-c2ccnc3c(-c4cccc(O)c4)c(-c4ccncc4)nn23)c(Cl)c1
IC50 [1]: < 10 nM
IC50 [2]: < 0.32 nM

CN1C[C@@H]2C[C@H]1CN2c1ccc(-c2ccnc3c(-c4ccc(F)c(O)c4)c(-c4ccncc4)nn23)cc1
IC50 [1]: 76 nM
IC50 [2]: < 0.32 nM

Cc1cc(N2C[C@@H]3C[C@H]2CN3C)ccc1-c1ccnc2c(-c3ccc(F)c(O)c3)c(-c3ccncc3)nn12
IC50 [1]: 15 nM
IC50 [2]: < 0.32 nM

Oc1cccc(-c2c(-c3ccncc3)nn3c(-c4ccc(N[C@H]5CN6CCC5CC6)cc4)ccnc23)c1
IC50 [1]: 385 nM
IC50 [2]: 1 nM

Cc1cc(N2C[C@@H]3C[C@H]2CN3C)ccc1-c1ccnc2c(-c3cccc(O)c3)c(-c3ccncc3)nn12
IC50 [1]: 31 nM
IC50 [2]: < 0.32 nM

Oc1cccc(-c2c(-c3ccncc3)nn3c(-c4ccc(N5C[C@@H]6C[C@H]5CN6)cc4)ccnc23)c1
IC50 [1]: 300 nM
IC50 [2]: 0.49 nM

Cc1cc(N2C[C@@H]3C[C@H]2CN3)ccc1-c1ccnc2c(-c3cccc(O)c3)c(-c3ccncc3)nn12
IC50 [1]: 65 nM

CN1C[C@@H]2C[C@H]1CN2c1ccc(-c2ccnc3c(-c4cccc(O)c4)c(-c4ccncc4)nn23)c(F)c1
IC50 [1]: 12 nM
IC50 [2]: < 0.32 nM

Oc1cccc(-c2c(-c3ccncc3)nn3c(-c4ccc(N[C@@H]5CN6CCC5CC6)cc4)ccnc23)c1
IC50 [1]: 370 nM
IC50 [2]: 1.5 nM

CN1C[C@@H]2C[C@H]1CN2c1ccc(-c2ccnc3c(-c4cccc(O)c4)c(-c4ccncc4)nn23)cc1
IC50 [5]: 1760 nM
IC50 [6]: 17.6 µM
IC50 [7]: 18.6 µM
IC50 [1]: 77 nM
IC50 [8]: 1940 nM
IC50 [9]: 6.56 µM
IC50 [10]: 25.5 µM
IC50 [11]: 2460 nM
IC50 [12]: 1240 nM
IC50 [13]: > 50 µM
IC50 [14]: 4.1 µM
IC50 [15]: 17.1 µM
IC50 [16]: 563 nM
IC50 [17]: 675 nM
IC50 [18]: > 50 µM
IC50 [2]: 0.38 nM
IC50 [19]: 69 nM
IC50 [20]: > 50 µM
IC50 [21]: 3.1 µM
IC50 [22]: 119 nM
IC50 [23]: 9.71 µM
IC50 [24]: 1790 nM
IC50 [25]: 222 nM
IC50 [26]: 28.4 µM
IC50 [27]: 9.51 µM
IC50 [28]: 26.4 µM

COc1cc(-c2c(-c3ccncc3)nn3c(-c4ccc(N5CC6CCC(C5)N6C)cc4)ccnc23)ccc1Cl
IC50 [1]: 630 nM
IC50 [2]: 9.7 nM

Oc1cccc(-c2c(-c3ccncc3)nn3c(-c4ccc(NCC56CCN(CC5)CC6)cc4)ccnc23)c1
IC50 [1]: 930 nM
IC50 [2]: 2 nM

Oc1cccc(-c2c(-c3ccncc3)nn3c(-c4ccc(N5C[C@@H]6C[C@H]5CN6)cc4F)ccnc23)c1
IC50 [1]: 23 nM
IC50 [2]: < 0.32 nM

Oc1cccc(-c2c(-c3ccncc3)nn3c(-c4ccc(N5C[C@@H]6C[C@H]5CN6)cc4Cl)ccnc23)c1
IC50 [1]: 16 nM
IC50 [2]: < 0.32 nM

Oc1cc(-c2c(-c3ccncc3)nn3c(-c4ccc(N5C[C@@H]6C[C@H]5CN6)cc4)ccnc23)ccc1F
IC50 [1]: 150 nM
IC50 [2]: < 0.32 nM

CCOC(=O)c1cnn2c(-c3cccc(NC(=O)c4cccc(C(F)(F)F)c4)c3)ccnc12
IC50 [2]: 1500 nM
